Data on eight compounds can be found in PubChem BioAssay (NCI).

Some test systems named below: SN12C renal; IGROV1 ovarian; SK-MEL-28 melanoma; T-47D breast; CAKI-1 renal; PC-3 prostate; NCI-H460 lung; A549 NSCLC; OVCAR-8 ovarian; NCI/ADR-RES ovarian.
What all share (experiment): NCI-60 cell line screen, 48 h

SMILES strings stand for the structures.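 Briefly, cells in 96-well plates were exposed to five compound concentrations for 48 h, and endpoints were estimated by linear interpolation. GI50: concentration for 50% inhibition of growth. At the TGI there is no net growth.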 A value given as a limit tells only on which side of the number the result lay.

In the case of `CC[C@@]12C=CCN3CC[C@]4(c5cc(NC(=O)COc6cc(OCC(=O)Nc7cc8c(cc7OC)N(C)[C@H]7[C@@](O)(C(=O)OC)[C@H](OC(C)=O)[C@]9(CC)C=CCN%10CC[C@]87[C@@H]%109)cc7oc(-c8ccccc8)cc(=O)c67)c(OC)cc5N(C)[C@@H]4[C@](O)(C(=O)OC)[C@H]1OC(C)=O)[C@H]32`, the GI50 in the assay with SN12C renal was 7270 nM; in the assay on IGROV1 ovarian, 1320 nM; in the assay with SK-MEL-28 melanoma it was greater than 100000 nM; in the assay with T-47D breast it was 57500 nM; with CAKI-1 renal, 4520 nM; with PC-3 prostate, 2910 nM. Also, the GI50 was 2550 nM in the assay with NCI-H460 lung, 7140 nM with A549 NSCLC, 2870 nM in the assay with OVCAR-8 ovarian and greater than 100000 nM in the assay on NCI/ADR-RES ovarian. The TGI in the assay with SN12C renal is greater than 100000 nM; in the assay on IGROV1 ovarian, 3630 nM; in the assay with SK-MEL-28 melanoma it was greater than 100000 nM; in the assay on T-47D breast it was greater than 100000 nM; in the assay with CAKI-1 renal, greater than 100000 nM; in the assay with PC-3 prostate, greater than 100000 nM. For the same compound, the TGI is 7150 nM with NCI-H460 lung, greater than 100000 nM in the assay on A549 NSCLC, greater than 100000 nM in the assay on OVCAR-8 ovarian and greater than 100000 nM in the assay with NCI/ADR-RES ovarian.

`CN1c2ccccc2S(=O)(=O)n2c(CCc3ccccc3)nnc21`: the TGI in the assay on SN12C renal, in the assay with IGROV1 ovarian, in the assay on SK-MEL-28 melanoma, in the assay with T-47D breast, in the assay on CAKI-1 renal and with PC-3 prostate was greater than 100000 nM in each case. Moreover, the TGI with NCI-H460 lung, in the assay with A549 NSCLC, with OVCAR-8 ovarian and in the assay on NCI/ADR-RES ovarian was greater than 100000 nM in each case.

On to `COc1cc(/C=C2\CN(C(=O)CCN3CCC(=NO)CC3)C/C(=C\c3cc(OC)c(OC)c(OC)c3)C2=O)cc(OC)c1OC`, for which the GI50 with SN12C renal was 241 nM; with IGROV1 ovarian, 275 nM; in the assay with SK-MEL-28 melanoma it was 279 nM; with T-47D breast, 803 nM; with CAKI-1 renal it was 837 nM; with PC-3 prostate, 298 nM. The GI50 was 282 nM in the assay on NCI-H460 lung, 1150 nM in the assay with A549 NSCLC, 444 nM in the assay on OVCAR-8 ovarian and 2710 nM in the assay with NCI/ADR-RES ovarian. In addition, the TGI with SN12C renal amounted to 695 nM; with IGROV1 ovarian, 793 nM; in the assay on SK-MEL-28 melanoma, 766 nM; with T-47D breast, 10600 nM; in the assay on CAKI-1 renal, 2340 nM; in the assay on PC-3 prostate, 1120 nM. Also, the TGI with NCI-H460 lung is 847 nM; in the assay on A549 NSCLC, 5820 nM; with OVCAR-8 ovarian, greater than 35600 nM; in the assay with NCI/ADR-RES ovarian it was greater than 100000 nM.

On to `Oc1c(CN2CCCC2)cc(CSCc2ccccc2)c2cccnc12`, for which the GI50 in the assay on SN12C renal is 1690 nM; in the assay with IGROV1 ovarian, 1930 nM; with SK-MEL-28 melanoma, 1850 nM; with T-47D breast, 1150 nM; in the assay on CAKI-1 renal it was 77.4 nM; with PC-3 prostate, 1550 nM. The GI50 was 498 nM in the assay on NCI-H460 lung, 1730 nM in the assay on A549 NSCLC, 462 nM with OVCAR-8 ovarian and 98.9 nM with NCI/ADR-RES ovarian. The TGI stood at 13500 nM with SN12C renal; 11300 nM in the assay with IGROV1 ovarian; 13600 nM in the assay on SK-MEL-28 melanoma; 8260 nM in the assay with T-47D breast; 1470 nM in the assay on CAKI-1 renal; 14000 nM with PC-3 prostate. Moreover, the TGI amounted to 2830 nM in the assay on NCI-H460 lung, 10600 nM with A549 NSCLC, 9790 nM in the assay on OVCAR-8 ovarian and 807 nM with NCI/ADR-RES ovarian.

Consider `CC(C(=O)O)c1ccc(-c2ccccc2)c(F)c1` (stereo not given), for which the TGI in the assay with SN12C renal, in the assay with IGROV1 ovarian, with SK-MEL-28 melanoma, in the assay with T-47D breast, in the assay with CAKI-1 renal and with PC-3 prostate was greater than 100000 nM each time. Further, the TGI with NCI-H460 lung, in the assay with A549 NSCLC, in the assay on OVCAR-8 ovarian and in the assay with NCI/ADR-RES ovarian was greater than 100000 nM in each case.

With `CC(C)(C)n1cc(-c2ccnc(NCCCNS(=O)(=O)c3ccc(Br)cc3)c2)c(-c2cccc(O)c2)n1`, the GI50 was 1610 nM with SN12C renal; 1910 nM with IGROV1 ovarian; 1790 nM with SK-MEL-28 melanoma; 2480 nM in the assay with T-47D breast; 2160 nM with CAKI-1 renal; 1600 nM in the assay with PC-3 prostate. In addition, the GI50 with NCI-H460 lung is 1990 nM; in the assay on A549 NSCLC, 2110 nM; in the assay with OVCAR-8 ovarian, 2430 nM; in the assay with NCI/ADR-RES ovarian it was 2210 nM. In addition, the TGI is 3010 nM with SN12C renal; 3930 nM with IGROV1 ovarian; 3360 nM in the assay with SK-MEL-28 melanoma; 8120 nM in the assay with T-47D breast; 5060 nM with CAKI-1 renal; 4080 nM in the assay with PC-3 prostate. For the same compound, the TGI in the assay on NCI-H460 lung was 3990 nM; in the assay with A549 NSCLC it was 5390 nM; in the assay on OVCAR-8 ovarian, 6880 nM; in the assay with NCI/ADR-RES ovarian, 5030 nM.

For the compound `CCOC(=O)c1c2c(n(Cc3ccccc3)c1C)-c1nc(Cc3ccccc3)[nH]c1C(=O)C2=O`, the GI50 is 1580 nM in the assay on SN12C renal; 1240 nM in the assay with IGROV1 ovarian; 2000 nM with SK-MEL-28 melanoma; 496 nM with T-47D breast; 673 nM in the assay on CAKI-1 renal; 1450 nM in the assay on PC-3 prostate. The GI50 in the assay on NCI-H460 lung was 1960 nM; in the assay with A549 NSCLC it was 2500 nM; with OVCAR-8 ovarian, 2030 nM; in the assay on NCI/ADR-RES ovarian it was 2510 nM. The TGI in the assay on SN12C renal was determined as 3210 nM; in the assay with IGROV1 ovarian it was 2680 nM; in the assay with SK-MEL-28 melanoma it was 3420 nM; in the assay with T-47D breast, 2640 nM; in the assay on CAKI-1 renal, 2180 nM; in the assay on PC-3 prostate, 3200 nM. For the same compound, the TGI worked out at 4220 nM with NCI-H460 lung, 7150 nM with A549 NSCLC, 4990 nM in the assay with OVCAR-8 ovarian and 5280 nM in the assay with NCI/ADR-RES ovarian.

For the compound `N=c1ccc2nc3c(cc(N)c4ccccc43)oc-2c1`, the GI50 with SN12C renal was 253 nM; with IGROV1 ovarian, 180 nM; with SK-MEL-28 melanoma, 1190 nM; in the assay on T-47D breast, 1090 nM; in the assay with CAKI-1 renal, 444 nM; in the assay with PC-3 prostate it was 217 nM. In addition, the GI50 in the assay on NCI-H460 lung is 223 nM; in the assay on A549 NSCLC, 295 nM; with OVCAR-8 ovarian, 457 nM; with NCI/ADR-RES ovarian, 223 nM. The TGI with SN12C renal was 801 nM; with IGROV1 ovarian, 643 nM; with SK-MEL-28 melanoma, 2540 nM; with T-47D breast it was 2790 nM; in the assay with CAKI-1 renal it was 2320 nM; in the assay with PC-3 prostate, 1710 nM. The TGI in the assay with NCI-H460 lung stood at 565 nM; in the assay on A549 NSCLC, 1050 nM; in the assay on OVCAR-8 ovarian it was 3280 nM; with NCI/ADR-RES ovarian, 1090 nM.
